# Measurements from patent US20240368563A1, “IN VITRO METHOD OF INVASIVE AND DUCTAL CELL GROWTH” (Helmholtz Zentrum München - Deutsches Forschungszentrum Für …, priority 2021, published 2024).
# How the values were obtained:
# Type in all cases: cell-based
# [1] = tested on: human mammary luminal progenitor (LP) cells; test: Branched structure formation of single LP cells in collagen type I gels (carmine staining, quantification of structure type, size, complexity)
# Method: Healthy mammary gland tissue was provided by the Nymphenburg Clinic for Plastic and Aesthetic Surgery and processed in accordance with the regulations of the ethics committee of the Ludwig-Maximilian University, Munich, Germany (proposal 19-989) as described previously^35,63. In brief, reduction mammoplasty tissue was minced with scalpels into 2-3 mm^3 pieces. Next, tissue was digested with 300 U/mL collagenase I and 100 U/mL hyaluronidase and 1 μg/mL insulin for approximately 16 hrs. Finally, fragments were either cryopreserved immediately or a single cell suspension was made using trypsin-EDTA and dispase. If cells were cryopreserved as fragments, they were turned into a single cell suspension upon thawing using trypsin-EDTA and dispase. Prior to experiments, single cell suspensions were filtered through a 40 μm cell strainer. Age and parity of donors used in this study are catalogued in Table 1 given directly below.
# 3D collagen type I gels were prepared as described previously^35,63 with modifications. Single cell suspensions were mixed with BLOM foundation, rat tail collagen type I (Corning) and neutralizing solution. The final collagen concentration was 1.3 mg/ml. If the pH of the solution was <7.4, the pH was adjusted by addition of NaOH (1 M) up to a volume of 1 μl per 100 μl polymerization solution. After polymerization for 1 hr, 2× concentrated full medium was added onto the gels in a 1:1 volume ratio to the gel. Gels were encircled with a pipette tip for detachment. For cells that had not been in culture previously, the first medium exchange (from now on with 1× concentrated medium) was done after 5 d and then every 2-3 d. In case of cells that had been in 2D culture before, the first medium exchange was done between 3 d and 5 d. For all experiments except ELDA, per 1 ml of gel, between 250 and 2000 LP cells were seeded. In case of B+ and LM cells, between 2000 and 7500 cells were seeded per 1 ml of gel.
# Images of carmine stained structures were evaluated with ImageJ. The size of an organoid was determined with the ImageJ area tool. Here, all tips of the structure were virtually connected with the ImageJ area tool and size was defined as the area covered by the organoid. For assessment of complexity, the longest branch was identified within each structure. The hierarchy of all other branches relative to this longest branch was classified (see FIG. 6B).
# Carmine staining solution was prepared with a concentration of 0.5 g/l carmine and 1.15 g/l aluminium potassium sulfate in distilled water. For staining of 3D structures, gels were fixed with 4% paraformaldehyde for 15 min and incubated with carmine staining solution overnight. Images were acquired on a Leica DM IL LED microscope using a HiPlan 10×/0.22 PH1 objective. Three PBS washing steps were performed in between all steps described above.
# [2] = tested on: human mammary luminal progenitor (LP) cells; test: Live-cell imaging of LP-derived organoids during elongation phase (cell movement, bead displacement, duct elongation)
# Method: Live cell imaging was performed using a Leica SP8 lightning confocal microscope with an on-stage incubation system (Ibidi) regulating CO2, O2, humidity and temperature. Organoids were imaged during elongation phase between day 7 and 9 with a time separation of 10 min between each acquired image. For visualization, nuclei were labelled with 10 μM sirDNA (Spirochrome AG) 3 hours prior to the measurements. Accordingly, organoids were excited at 633 nm and the fluorescent signal was collected around 674 nm using a HCX PL APO 10×/0.40 CS dry objective. Bead displacements/deformation fields were visualized using ImageJ 1.48v. First, the fluorescence signal of the fluorescent nuclei at the first time step was summed up along the z-axis to visualize the shape of the organoid. Second the fluorescence channel of the beads was summed along the z-axis and subsequently summed up over all time steps. At last, both calculated pictures were merged into one image. Bead tracking was calculated using Matlab R2020b. First, the fluorescence channel of the beads was masked by an intensity threshold to reduce the background. Second, bead positions are defined by taking the center of an interpolated intensity grid. Third, individual bead tracks were calculated by matching bead coordinates in three consecutive images. Thereby, beads touching the boundaries or beads to close to each other were excluded to guarantee a correct tracking.
# Analysis for structure prevalence, type, size and complexity was performed with GraphPad Prism 8. Nuclei velocity within the organoid was calculated via optical flow using the in Matlab implemented Farneback algorithm. By defining the branch axis, the velocities were separated in a parallel and orthogonal component. The directionality of nuclei migration was defined by calculating the ratio of parallel and orthogonal component. Consequently, at directionality equal to one parallel and orthogonal component are at the same order of magnitude. At higher or lower values, either parallel or orthogonal velocity component dominates. In order to visualize the migration patterns of individual cells, cells were manually tracked. Therefore, each nucleus was tracked three times and the resulting average path was calculated.
# Collagen degradation via MMPs was inhibited by using 10 μM Marimastat (Merck, 444289), which was added to the medium of elongating organoids prior to imaging. E-cadherin blocking was performed by addition of an E-cadherin blocking-antibody HECD1 in a dilution of 1:25 after 5 d of organoid culture.
# [3] = tested on: human mammary luminal progenitor (LP) cells; test: Immunofluorescence of polarization markers in LP-derived organoids; conditions: BLOM-medium without Y-27632
# Method: 2D cells for immunofluorescence were cultured in 96-wells with optically clear bottom (PerkinElmer, 6005550). Immunofluorescence was performed as described previously^35,63. In brief, 2D cells or 3D cells (in collagen type I gels) were fixed with 4% paraformaldehyde for 15 min. Cells were permeabilized with 0.2% Triton X-100 for 2 min (2D) and 10 min (3D) respectively. Blocking was performed with 10% donkey serum in 0.1% BSA for 1 hr (2D) and overnight at 4° C. (3D) respectively. Primary antibodies in 0.1% BSA were incubated for 1 hr (2D) and overnight at 4° C. (3D) respectively. Next, DAPI (167 ng/ml) was added for 2 min (2D) and 10 min (3D), respectively. Finally, Aqua-Poy/Mount mounting medium (Polysciences, 18606) was added to preserve staining. Three PBS washing steps were performed in between all steps described above. Images of cells grown in 2D were acquired on an Axio Imager. A M2m imaging microscope was used with a 40× objective. Images of cells grown in 3D were acquired on FLUOVIEW FV1000 inverted confocal laser scanning microscope equipped with four laser lines (405, 488, 543, and 633 nm) using UPLSAPO 60×, 40× and 20× objective lenses. Images were processed with Gimp 2.8.22 and ImageJ 1.52i.
# [4] = 10 μM Marimastat during branch elongation phase
smiles,measurement,setting,value
"Cc1ccc2c(c1)C(=O)[C@]1(O)CCN(c3ccc(N)cc3)C1=N2 [PAB, para-amino blebbistatin]",branched structure phenotype when Y-27632 is replaced by PAB (in words),"[1]; BLOM-medium without Y-27632, PAB added, donors M16, M28, M44",able to induce a phenotype similar to the one created by Y-27632
CNC(=O)[C@@H](NC(=O)[C@H](CC(C)C)[C@H](O)C(=O)NO)C(C)(C)C [Marimastat],duct elongation / invasion of branch tips (in words),[2]; [4],stopped the branch tips from further invading the matrix
same,general cytotoxic effect (in words),[2]; [4],excluding a general cytotoxic effect
C[C@@H](N)[C@H]1CC[C@H](C(=O)Nc2ccncc2)CC1 [Y-27632],"apical-basal polarization of organoids (laminin, F-actin, lumen) (in words)",[3],polarization was disturbed in the absence of ROCK inhibition
same,bead displacement / contractility (in words),"[2]; in the presence of ROCK inhibitor, collagen gels spiked with fluorescent beads","not completely abolished, but limited to the front of elongating branches"
same,directionality of cell migration within organoids (in words),"[2]; under ROCK inhibition (with Y-27632), nuclear labelling",primarily directed outwards in parallel to the axis of the extending branch
same,decrease in branched structure formation upon removal of Y-27632,"[1]; BLOM-medium without Y-27632 (DMSO ctrl) vs with Y-27632 (5 μM), donors M35, M44, M45",79%
same,change in size of branched structures upon removal of Y-27632,"[1]; BLOM-medium without Y-27632 (DMSO ctrl) vs with Y-27632, size = area covered by organoid",−66%
same,organoids with tertiary or even more complex branches,[1]; control organoids in BLOM-medium with Y-27632 (only 6% without Y-27632),65%
same,formation of elongated branched structures (in words),[1]; medium deprived of Y-27632,prevented the formation of elongated branched structures almost completely
